# Tests used:
# Type in all cases: biochemical
# HCV NS5B = target: T1, HCV NS5B (Hepatitis C virus genotype 1b, UniProt P26663); experiment: Continuous non-radioactive (luciferase-coupled) NS5B polymerase assay, inhibitor test; settings: NS5B 20 nM, GTP 1 μM, inhibitor 0.1-2.5 μM, FIG. 3
# T1 construct: The HCV NS5BΔ55 enzyme was prepared as described by Ferrari et al; made in house
# Method: Polymerase assays were performed at room temperature using a 100 μl reaction mix in a 96-well plate. Final reaction conditions for NS5B were modified from those used by Ferrari et al. J. Virol. 73:1649-54 (1999) [20 mM Hepes pH 7.3; 7.5 mM DTT; 20 U/ml RNAsin; 0.5 μg/ml oligo(G)12; 5 μg/ml poly(C); 1 μM GTP; 10 mM MgCl2; 60 mM NaCl; 100 μg/ml BSA; and NS5B]. NS5B assay mixtures were supplemented with components for the ATP sulfurylase and luciferase coupled enzyme reactions [0.5 mM coenzyme A (CoA); 310 μM D-luciferin; 1 nM luciferase; 5 μM APS; 0.03-0.3 U ATP sulfurylase (see Brief Description of the Drawings for specific conditions)]. […]
# To test the effect of inhibitors on the NS5B polymerase reaction, compounds were diluted in the appropriate diluents and added to the GTP-containing mixture. Microtiter plates containing the reaction samples were immediately transferred to the luminometer for detection of the light signal generated over time, taking a 0.2-1.0 s reading of each well every 30-60 s (time intervals depend on the number of samples tested). Readings were monitored in comparison to a no-NS5B reaction as a control for ATP generation in the absence of polymerase activity. […]
# firefly luciferase [1] = target: T2, firefly luciferase (Photinus pyralis, UniProt P08659)
# T2 construct: purchased Promega (Madison, Wis.)
# Method: (§1) To test the effect of NTPs on the ATP sulfurylase/luciferase coupled read-out system, control reactions for NS5B assays (with 0.3 U ATP sulfurylase) were assembled as above omitting RdRp and RNA. Reactions were initiated by addition of nucleotide (1 μM final). To reduce free PPi in commercial NTPs, 10 mM stocks were pretreated with inorganic pyrophosphatase. A 10 μl aliquot of the NTP stock was incubated with 0.5 U of thermostable inorganic pyrophosphatase for 10 minutes at 75° C.; untreated NTP samples were processed in parallel as controls. Treated and untreated NTPs were diluted to 100 μM working stocks for subsequent assays.
# (§2) Another possible source of background is direct utilization of the NTPs by the ATP sulfurylase/luciferase cascade. To address this possibility, reactions without either RdRp or template were examined.
# firefly luciferase [2] = settings: reactions without RdRp or template, nucleotide 1 μM final
# Method: as §1, §2
# T2 sequence (P08659 whole entry): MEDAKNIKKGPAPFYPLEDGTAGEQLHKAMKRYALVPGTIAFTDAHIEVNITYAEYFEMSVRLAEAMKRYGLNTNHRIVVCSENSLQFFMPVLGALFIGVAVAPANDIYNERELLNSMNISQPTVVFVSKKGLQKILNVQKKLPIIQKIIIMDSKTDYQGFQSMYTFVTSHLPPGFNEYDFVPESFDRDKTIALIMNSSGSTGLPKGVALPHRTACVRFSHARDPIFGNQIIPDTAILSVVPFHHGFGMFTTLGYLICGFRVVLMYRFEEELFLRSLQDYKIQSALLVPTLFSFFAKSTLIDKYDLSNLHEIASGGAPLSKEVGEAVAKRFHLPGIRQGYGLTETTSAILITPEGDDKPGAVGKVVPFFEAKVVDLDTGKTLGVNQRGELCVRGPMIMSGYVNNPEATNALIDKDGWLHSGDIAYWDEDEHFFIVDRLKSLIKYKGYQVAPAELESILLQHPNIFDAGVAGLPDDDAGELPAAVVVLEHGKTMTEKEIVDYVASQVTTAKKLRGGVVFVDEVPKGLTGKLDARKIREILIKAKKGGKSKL
# T1 sequence (P26663 2420-2955): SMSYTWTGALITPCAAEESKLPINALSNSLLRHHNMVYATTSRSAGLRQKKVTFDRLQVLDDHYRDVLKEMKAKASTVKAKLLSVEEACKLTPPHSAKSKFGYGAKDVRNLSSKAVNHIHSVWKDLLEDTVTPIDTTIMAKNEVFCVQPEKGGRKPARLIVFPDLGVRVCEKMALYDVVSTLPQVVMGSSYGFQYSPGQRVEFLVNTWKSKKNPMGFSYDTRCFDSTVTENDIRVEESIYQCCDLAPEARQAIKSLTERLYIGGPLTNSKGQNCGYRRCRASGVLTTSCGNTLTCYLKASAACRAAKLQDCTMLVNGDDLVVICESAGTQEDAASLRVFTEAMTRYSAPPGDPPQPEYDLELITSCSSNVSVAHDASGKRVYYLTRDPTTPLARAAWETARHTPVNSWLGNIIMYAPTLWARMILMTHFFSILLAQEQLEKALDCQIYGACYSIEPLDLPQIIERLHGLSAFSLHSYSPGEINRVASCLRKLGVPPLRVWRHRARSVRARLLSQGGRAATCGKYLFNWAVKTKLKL
smiles,measurement,setting,value
Nc1nc2c(ncn2[C@@H]2O[C@H](COP(=O)(O)OP(=O)(O)OP(=O)(O)O)C[C@H]2O)c(=O)[nH]1 [3′-deoxyguanosine-5′ triphosphate],Inhibition of NS5B activity (reduced levels of light generated),HCV NS5B; 30 minute reaction,Dose- and time-dependent inhibition
same,Mode of inhibition from progress curves,HCV NS5B,consistent with chain termination
"Nc1ncnc2c1ncn2[C@@H]1O[C@H](COP(=O)(O)OP(=O)(O)OP(=O)(O)O)[C@@H](O)[C@H]1O [ATP, Adenosine 5′-triphosphate]",Km,"firefly luciferase [1]; read-out: Km for the luciferase reaction, under these experimental conditions, data not shown",0.65 ± 0.04 µM
Nc1ncnc2c1ncn2[C@@H]1O[C@H](COP(O)(=S)OP(=O)(O)OP(=O)(O)O)[C@@H](O)[C@H]1O (stereo partly shown) [ATPαS],Utilization of NTP as substrate by the ATP sulfurylase/luciferase cascade (background signal),firefly luciferase [2],poor substrate for luciferase
Nc1nc2c(ncn2[C@@H]2O[C@H](COP(=O)(O)OP(=O)(O)OP(=O)(O)O)[C@@H](O)[C@H]2O)c(=O)[nH]1 [GTP],Utilization of NTP as substrate by the ATP sulfurylase/luciferase cascade (background signal),firefly luciferase [2],lowest level of signal
"O=P(O)(O)OP(=O)(O)OP(=O)(O)OC[C@H]1O[C@@H](n2cnc3c(O)ncnc32)[C@H](O)[C@@H]1O [Inosine triphosphate (ITP), Inosine triphosphate]",Luciferase substrate quality relative to GTP,"firefly luciferase [1]; reactions without RdRp or template, nucleotide 1 μM final",about 10 fold
same,Utilization of NTP as substrate by the ATP sulfurylase/luciferase cascade (background signal),firefly luciferase [2],relatively good luciferase substrate

# From patent US20040142322A1, “Continuous non-radioactive polymerase assay” (priority 2002, published 2004)
